{
  "source": "patent US20200165194A1",
  "about": "“ADDITIVE COMPOSITION FOR CULTURE MEDIUM, ADDITIVE COMPOUND FOR CULTURE MEDIUM, AND METHOD FOR CULTURE OF CELLS OR TISSUE USING SAME” (NISSAN CHEMICAL CORPORATION, priority 2017, published 2020)",
  "format_in_all_cases": "cell-based",
  "key": {"[1]": {"tested_on": "human malignant melanoma-derived cell line A375", "experiment": "Various human cancer cells-2, 3D culture, ATP assay (Experimental Example 6)", "settings": "4 days; for viability at 5 µM / viability at 10 µM: Homo sapiens, A-375, 96 h, read-out: number of viable cells (RLU), relative value to control (100%)", "protocol": "(§1) Various human-derived cancer cells were precultured (single layer culture) in respective media shown below. […] The above-mentioned cells in the logarithmic growth phase were washed with PBS, a 0.25 w/v % trypsin-1 mmol/L EDTA (ethylenediaminetetraacetic acid) solution (manufactured by Wako Pure Chemical Industries, Ltd.) was added, and adherent cells were detached by incubating at 37° C. for 1-5 min. Each medium was added and the mixture was centrifuged. After resuspension in the same medium, each cell was recovered.\n(§2) The aforementioned various cells were suspended in respective deacylated gellan gum-containing or not containing media (deacylated gellan gum concentration was 0.015 w/v %), and seeded in a 96 well low attachment U-bottom plate (manufactured by Corning, #4520, deacylated gellan gum-free medium), or a low attachment flat bottom plate (manufactured by Corning, #3474, deacylated gellan gum-containing medium) at a cell concentration of 700-12000 cells/90 μL/well (all 3D culture). […] The amount of each compound solution to be added was 10 μL/well. As a control, a DMSO solution dissolved in a medium was added (DMSO final concentration 0.1%). […] When compared with the compound no-addition (control), one showing a value of not more than 119% as -, one showing a value of not less than 120% as ◯, and one showing a value of not less than 150% as ⊚ are shown in the eleventh table and the twelfth table. Unperformed test is left blank."}, "[2]": {"tested_on": "human uterus cervix cancer-derived cell line HeLa", "experiment": "Various human cancer cells-2, 3D culture, ATP assay (Experimental Example 6)", "settings": "4 days", "protocol": "as §1, §2"}, "[3]": {"tested_on": "human stomach adenocarcinoma-derived cell line AGS", "experiment": "Various human cancer cells-2, 3D culture, ATP assay (Experimental Example 6)", "settings": "4 days; for viability at 5 µM / viability at 10 µM: Homo sapiens, 96 h, read-out: number of viable cells (RLU), relative value to control (100%)", "protocol": "as §1, §2"}, "[4]": {"tested_on": "human colon adenocarcinoma-derived cell line HCT116", "experiment": "Various human cancer cells-1, 3D culture, WST-8 (Experimental Example 5)", "settings": "4 days", "source_text": "(§3) Various human-derived cancer cells were precultured (single layer culture) in respective media shown below. Human uterus cervix cancer-derived cell line HeLa (manufactured by American Type Culture Collection (hereinafter indicated as ATCC), 10% fetal bovine serum (FBS, manufactured by Corning)-containing Dulbecco's Modified Eagle's Medium (hereinafter abbreviated as DMEM) (manufactured by Wako Pure Chemical Industries, Ltd.)), human malignant melanoma-derived cell line A375 (manufactured by ATCC, 10% FBS-containing DMEM), human epithelial-like cell cancer-derived cell line A431 (manufactured by ATCC, 10% FBS and 1% MEM non-essential amino acid solution (MEM Non-Essential Amino Acids solution (hereinafter abbreviated as NEAA) (manufactured by Wako Pure Chemical Industries, Ltd.))-containing Eagle's Minimum Essential Medium (hereinafter abbreviated as EMEM) (manufactured by Wako Pure Chemical Industries, Ltd.)), human stomach adenocarcinoma-derived cell line AGS (manufactured by DS PHARMA BIO MEDICAL, 10% FBS-containing Ham's F-12 (manufactured by Wako Pure Chemical Industries, Ltd.)), human prostate cancer-derived cell line LNCaP clone FGC (manufactured by ATCC, 10% FBS-containing RPMI1640 (manufactured by Wako Pure Chemical Industries, Ltd.)), human colon adenocarcinoma-derived cell line HCT116 (manufactured by DS PHARMA BIO MEDICAL, 10% FBS-containing McCoy's 5A Medium (manufactured by Sigma-Aldrich)), human alveolar basal epithelial adenocarcinoma-derived cell line A549 (manufactured by DS PHARMA BIO MEDICAL, 10% FBS-containing DMEM), human prostate cancer-derived cell DU145 (manufactured by ATCC, 10% FBS-containing EMEM). The above-mentioned cells in the logarithmic growth phase were washed with PBS, a 0.25 w/v % trypsin-1 mmol/L EDTA (ethylenediaminetetraacetic acid) solution (manufactured by Wako Pure Chemical Industries, Ltd.) was added, and adherent cells were detached by incubating at 37° C. for 1-5 min. Each medium was added and the mixture was centrifuged. After resuspension in the same medium, each cell was recovered.\n(§4) The aforementioned various cells were suspended in respective deacylated gellan gum-containing or not containing media (deacylated gellan gum concentration was 0.015 w/v %, and 0.020 w/v % for RPMI1640 alone), and seeded in a 96 well low attachment U-bottom plate (manufactured by Corning, deacylated gellan gum-free medium), or a low attachment flat bottom plate (manufactured by Corning, deacylated gellan gum-containing medium) at a cell concentration of 1000-12000 cells/135 μL/well (all 3D culture). After static culture overnight in 37° C., 5% CO2 incubator, a DMSO solution of the compound to be used in the present invention was added to each medium at a final concentration of 5 μM or 10 μM. The amount of each compound solution to be added was 15 μL/well. As a control, a DMSO solution dissolved in a medium was added (DMSO final concentration 0.1%). After continuously culturing in an incubator at 37° C., 5% CO2 for 4 days, WST-8 solution (manufactured by DOJINDO LABORATORIES) was added at 15 μL/well, and the mixture was reacted in the same incubator for 1-2 hr. […] When compared with the compound no-addition (control), one showing a value of not more than 119% as -, one showing a value of not less than 120% as ◯, and one showing a value of not less than 150% as ⊚ are shown in the tenth table."}, "[5]": {"tested_on": "human prostate cancer-derived cell DU145", "experiment": "Various human cancer cells-1, 3D culture, WST-8 (Experimental Example 5)", "settings": "4 days; for viability at 5 µM / viability at 10 µM: Homo sapiens, DU-145, 96 h, read-out: number of viable cells, relative value to control (100%)", "source_text": "as §3, §4"}, "[6]": {"tested_on": "human stomach adenocarcinoma-derived cell line AGS", "experiment": "Various human cancer cells-1, 3D culture, WST-8 (Experimental Example 5)", "settings": "4 days; for viability at 5 µM / viability at 10 µM: Homo sapiens, 96 h, read-out: number of viable cells, relative value to control (100%)", "source_text": "as §3, §4"}, "[7]": {"settings": "low attachment U-bottom plate, 5 μM"}, "[8]": {"settings": "low attachment U-bottom plate, 10 μM"}, "[9]": {"settings": "low attachment flat bottom plate (gellan gum medium), 5 μM"}, "[10]": {"settings": "low attachment flat bottom plate (gellan gum medium), 10 μM"}, "[11]": {"settings": "low attachment U-bottom plate (gellan gum-free), 5 μM"}, "[12]": {"settings": "low attachment U-bottom plate (gellan gum-free), 10 μM"}},
  "note": "Read-outs that look alike come from different tables or passages of the source.",
  "data": [
    {"smiles": "CC/C(=N\\NC(=O)NCc1ccccc1)c1ccc(O)c(C)c1O", "note": "[k-1:I-1]", "values": [
      {"measurement": "viability at 5 µM", "setting": "[1]; [7]", "result": "120 to 150", "unit": "%"},
      {"measurement": "viability at 10 µM", "setting": "[1]; [8]", "result": "120 to 150", "unit": "%"},
      {"measurement": "viability at 5 µM", "setting": "[1]; [9]", "result": "< 119", "unit": "%"},
      {"measurement": "viability at 10 µM", "setting": "[1]; [10]", "result": "< 119", "unit": "%"},
      {"measurement": "viability at 5 µM", "setting": "[2]; Homo sapiens, 96 h, low attachment U-bottom plate, 5 μM, read-out: number of viable cells (RLU), relative value to control (100%)", "result": "< 119", "unit": "%"},
      {"measurement": "viability at 10 µM", "setting": "[2]; Homo sapiens, 96 h, low attachment U-bottom plate, 10 μM, read-out: number of viable cells (RLU), relative value to control (100%)", "result": "< 119", "unit": "%"},
      {"measurement": "viability at 5 µM", "setting": "[3]; [7]", "result": "< 119", "unit": "%"},
      {"measurement": "viability at 10 µM", "setting": "[3]; [8]", "result": "120 to 150", "unit": "%"},
      {"measurement": "viability at 5 µM", "setting": "[3]; [9]", "result": "120 to 150", "unit": "%"},
      {"measurement": "viability at 10 µM", "setting": "[3]; [10]", "result": "120 to 150", "unit": "%"}
    ]},
    {"smiles": "CC/C(=N\\NC(=O)Nc1ccccc1)c1ccc(O)c(C)c1O", "note": "[k-1:H-10]", "values": [
      {"measurement": "viability at 5 µM", "setting": "[4]; Homo sapiens, HCT-116, 96 h, low attachment U-bottom plate (gellan gum-free), 5 μM, read-out: number of viable cells, relative value to control (100%)", "result": "< 119", "unit": "%"},
      {"measurement": "viability at 10 µM", "setting": "[4]; Homo sapiens, HCT-116, 96 h, low attachment U-bottom plate (gellan gum-free), 10 μM, read-out: number of viable cells, relative value to control (100%)", "result": "< 119", "unit": "%"},
      {"measurement": "viability at 5 µM", "setting": "[5]; [11]", "result": "120 to 150", "unit": "%"},
      {"measurement": "viability at 10 µM", "setting": "[5]; [12]", "result": "< 119", "unit": "%"},
      {"measurement": "viability at 5 µM", "setting": "[5]; [9]", "result": "< 119", "unit": "%"},
      {"measurement": "viability at 10 µM", "setting": "[5]; [10]", "result": "120 to 150", "unit": "%"},
      {"measurement": "viability at 5 µM", "setting": "[6]; [11]", "result": "120 to 150", "unit": "%"},
      {"measurement": "viability at 10 µM", "setting": "[6]; [12]", "result": "< 119", "unit": "%"},
      {"measurement": "viability at 5 µM", "setting": "[6]; [9]", "result": "< 119", "unit": "%"},
      {"measurement": "viability at 10 µM", "setting": "[6]; [10]", "result": "< 119", "unit": "%"}
    ]},
    {"smiles": "CC/C(=N\\NC(=O)C(C)Nc1ccccc1)c1ccc(O)c(C)c1O", "note": "(stereo not drawn) [k-1:B-1]", "values": [
      {"measurement": "viability at 5 µM", "setting": "[1]; [9]", "result": "> 120", "unit": "%"},
      {"measurement": "viability at 10 µM", "setting": "[1]; [10]", "result": "> 120", "unit": "%"},
      {"measurement": "number of viable cells (RLU), relative value to control (100%)", "setting": "[1]; [7]", "result": "⊙"},
      {"measurement": "number of viable cells (RLU), relative value to control (100%)", "setting": "[1]; [8]", "result": "⊙"},
      {"measurement": "number of viable cells (RLU), relative value to control (100%)", "setting": "[2]; [7]", "result": "⊙"},
      {"measurement": "number of viable cells (RLU), relative value to control (100%)", "setting": "[2]; [8]", "result": "⊙"},
      {"measurement": "number of viable cells (RLU), relative value to control (100%)", "setting": "[2]; [9]", "result": "⊙"},
      {"measurement": "number of viable cells (RLU), relative value to control (100%)", "setting": "[2]; [10]", "result": "⊙"},
      {"measurement": "viability at 5 µM", "setting": "[3]; [9]", "result": "> 120", "unit": "%"},
      {"measurement": "number of viable cells (RLU), relative value to control (100%)", "setting": "[3]; [7]", "result": "⊙"},
      {"measurement": "number of viable cells (RLU), relative value to control (100%)", "setting": "[3]; [8]", "result": "⊙"},
      {"measurement": "number of viable cells (RLU), relative value to control (100%)", "setting": "[3]; [10]", "result": "⊙"}
    ]},
    {"smiles": "CCC(=NNC(=O)C(CC)Nc1ccccc1)c1ccc(O)c(C)c1O", "note": "(stereo not drawn) [k-1:H-7]", "values": [
      {"measurement": "number of viable cells, relative value to control (100%)", "setting": "[4]; [12]", "result": "◯ (one showing a value of not less than 120% as ◯)"},
      {"measurement": "number of viable cells, relative value to control (100%)", "setting": "[4]; [9]", "result": "◯ (one showing a value of not less than 120% as ◯)"},
      {"measurement": "number of viable cells, relative value to control (100%)", "setting": "[4]; [10]", "result": "⊙"},
      {"measurement": "number of viable cells, relative value to control (100%)", "setting": "[5]; [11]", "result": "◯ (one showing a value of not less than 120% as ◯)"},
      {"measurement": "number of viable cells, relative value to control (100%)", "setting": "[5]; [12]", "result": "⊙"},
      {"measurement": "number of viable cells, relative value to control (100%)", "setting": "[5]; [9]", "result": "⊙"},
      {"measurement": "number of viable cells, relative value to control (100%)", "setting": "[5]; [10]", "result": "⊙"},
      {"measurement": "number of viable cells, relative value to control (100%)", "setting": "[6]; [11]", "result": "◯ (one showing a value of not less than 120% as ◯)"},
      {"measurement": "number of viable cells, relative value to control (100%)", "setting": "[6]; [12]", "result": "◯ (one showing a value of not less than 120% as ◯)"},
      {"measurement": "number of viable cells, relative value to control (100%)", "setting": "[6]; [10]", "result": "◯ (one showing a value of not less than 120% as ◯)"}
    ]}
  ]
}
